Measurements from patent US9550796B2, “Pyrrolopyrrolone derivatives and their use as BET inhibitors” (NOVARTIS AG, priority 2013, dated 2017).

Tests used:
BRD2 = BRD2 (Homo sapiens (Human), UniProt P25440); assay: TR-FRET in-vitro binding assay for BRD2; conditions: 45 nM His-Brd2(60-472), acetyl-histone H4 (AcK 5, 8, 12, 16) peptide
Experimental: TR-FRET In-Vitro Binding Assays for BRD2, BRD3, and BRD4: All assays were performed in 384-well microtiter plates. […] Liquid handling and incubation steps were done on an Innovadyne Nanodrop Express equipped with a robotic arm (Thermo CatX, Perkin Elmer/Caliper Twister II) and an incubator (Liconic STX40, Thermo Cytomat 2C450). The assay plates were prepared by addition of 50 nl per well of compound solution in 90% DMSO HummingBird nanodispenser (Zinsser Analytic). […] Reactions were incubated at 30° C. for 35 minutes. […] After 35 minutes incubation at 30° C., plates were measured in a Perkin Elmer EnVision multilabel reader. […] The stock solutions were stored at […] if not used immediately. For the test procedure the vials were defrosted and identified by a scanner whereby a working sheet was generated that guided the subsequent working steps. Compound dilutions were made in 96 well plates. This format enabled the assay of maximally […] at 8 concentrations (single points) including 4 reference compounds, if desired (known BET inhibitors from the prior art, for this and other assays of the type disclosed herein). The dilution protocol included the production of “pre-dilution plates”, “master plates” and “assay plates”. Polypropylene 96-well plates were used as pre-dilution plates. […] All dilution steps were done on a HamiltonSTAR robot. […] Identical “assay plates” were then prepared by pipetting 50 nL each of compound dilutions of the “master plates” into 384-well “assay plates” by means of a HummingBird 384-channel dispenser. These plates were used directly for the assay which was performed in a total volume of 13.55 μL.

MV-4-11 = assay: Cell growth inhibition assay (CellTiter-Glo), MV-4-11; type: cell-based, human; conditions: MV-4-11 cells, 4 days; for GI50: Homo sapiens, MV4-11, 96 h, half-maximal growth inhibition; for MV-4-11 TGI: total growth inhibition
Procedure, shortened: (§1)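 Proliferation and viability are quantified by CellTiter-Glo after four days of incubation with serially diluted compound (maximum 10 μM). Four-parameter curve fitting gives IC50 and TGI.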

K-562 = assay: Cell growth inhibition assay (CellTiter-Glo), K-562; type: cell-based, human; conditions: K-562 cells, 4 days; for GI50: Homo sapiens, K562, 96 h, half-maximal growth inhibition; for K-562 TGI: total growth inhibition
Procedure, shortened: as §1

THP-1 = assay: Cell growth inhibition assay (CellTiter-Glo), THP-1; type: cell-based, human; conditions: THP-1 cells, 4 days; for GI50: Homo sapiens, 96 h, half-maximal growth inhibition; for THP-1 TGI: total growth inhibition
Procedure, shortened: as §1

BRD3 = BRD3 (Homo sapiens (Human), UniProt Q15059); assay: TR-FRET in-vitro binding assay for BRD3; conditions: 45 nM His-Brd3(20-477), acetyl-histone H4 (AcK 5, 8, 12, 16) peptide
Sequence of BRD3 (Q15059 20-477): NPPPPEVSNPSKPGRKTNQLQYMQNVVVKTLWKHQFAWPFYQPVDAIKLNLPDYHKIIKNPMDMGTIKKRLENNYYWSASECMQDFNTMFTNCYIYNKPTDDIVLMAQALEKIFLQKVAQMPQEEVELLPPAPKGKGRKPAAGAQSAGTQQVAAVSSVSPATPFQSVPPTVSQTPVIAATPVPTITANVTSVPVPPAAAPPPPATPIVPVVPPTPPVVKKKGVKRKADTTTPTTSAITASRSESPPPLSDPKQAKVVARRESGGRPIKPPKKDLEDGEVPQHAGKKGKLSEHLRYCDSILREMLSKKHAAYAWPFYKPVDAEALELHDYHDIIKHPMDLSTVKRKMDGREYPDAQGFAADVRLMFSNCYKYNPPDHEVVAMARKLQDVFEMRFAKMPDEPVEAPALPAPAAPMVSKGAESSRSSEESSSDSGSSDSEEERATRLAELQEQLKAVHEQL
Procedure, shortened: (§2)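 Eight-point compound dilutions, delivered in 90% DMSO, were tested in a 13.55 μL final reaction. Reactions ran 35 minutes at 30° C before TR-FRET measurement.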

CREBBP = CREBBP (Homo sapiens (Human), UniProt Q92793); assay: AlphaScreen in-vitro binding assay for CREBBP; conditions: 324 nM His-CREBBP (1081-1197), acetyl-histone H4 (AcK 5, 8, 12) peptide
Sequence of CREBBP (Q92793 1081-1197): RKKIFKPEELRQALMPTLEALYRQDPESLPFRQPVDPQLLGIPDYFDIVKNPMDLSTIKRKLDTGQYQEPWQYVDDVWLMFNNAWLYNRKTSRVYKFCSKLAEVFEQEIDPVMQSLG
Procedure, shortened: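 IC50 values were derived by non-linear regression of percent inhibition across 8 compound concentrations. Protein was His-tagged CREBBP bromodomain (1081-1197), peptide acetyl-histone H4 (AcK 5, 8, 12), in HEPES pH 7.5 buffer. Read-out was AlphaScreen with Ni-chelate acceptor and streptavidin donor beads, 35 min at 30° C then 60 min at RT.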

BRD4 = BRD4 (Homo sapiens (Human), UniProt O60885); assay: TR-FRET in-vitro binding assay for BRD4; conditions: 45 nM His-Brd4(44-477), acetyl-histone H4 (AcK 5, 8, 12, 16) peptide
Procedure, shortened: as §2

Sequence of BRD2 (P25440 60-472): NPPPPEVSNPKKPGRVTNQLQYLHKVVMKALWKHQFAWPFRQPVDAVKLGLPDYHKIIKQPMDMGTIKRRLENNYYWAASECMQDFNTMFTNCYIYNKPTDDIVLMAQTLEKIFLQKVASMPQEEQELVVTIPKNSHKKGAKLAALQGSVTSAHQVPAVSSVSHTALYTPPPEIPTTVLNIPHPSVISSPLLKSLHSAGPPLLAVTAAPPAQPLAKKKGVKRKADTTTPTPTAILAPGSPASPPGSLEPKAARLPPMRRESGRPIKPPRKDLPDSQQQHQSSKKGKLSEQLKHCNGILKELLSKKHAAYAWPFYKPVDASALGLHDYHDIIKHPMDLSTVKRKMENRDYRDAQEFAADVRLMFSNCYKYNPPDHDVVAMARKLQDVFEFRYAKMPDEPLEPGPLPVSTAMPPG

SMILES	IC50 (BRD2) [nM]	GI50 (MV-4-11) [nM]	GI50 (K-562) [nM]	GI50 (THP-1) [nM]	IC50 (BRD3) [nM]	IC50 (CREBBP) [nM]	IC50 (BRD4) [nM]	MV-4-11 TGI (MV-4-11) [nM]	K-562 TGI (K-562) [nM]	THP-1 TGI (THP-1) [nM]
Cc1cn(CCO)c2c1C(=O)N(c1cc(C)c3nnc(C)n3c1)C2c1ccc(Cl)cc1 (stereo not drawn) [Example 14, 6-(4-chlorophenyl)-5-(3,8-dimethyl-[1,2,4]triazolo[4,3-a]pyridin-6-yl)-1-(2-hydroxyethyl)-3-methyl-5,6-dihydropyrrolo[3,4-b]pyrrol-4(1H)-one]	23	14.6	115	35.6	25	6600	22	30.85	>10000	81.55
Cc1cc(N2C(=O)c3c(C4CC4)cn(C4CN(C)C4)c3C2c2ccc(Cl)cc2)cn2c(C)nnc12 (stereo not drawn) [Example 16, 6-(4-chlorophenyl)-3-cyclopropyl-5-(3,8-dimethyl-[1,2,4]triazolo[4,3-a]pyridin-6-yl)-1-(1-methylazetidin-3-yl)-5,6-dihydropyrrolo[3,4-b]pyrrol-4(1H)-one]	14	3.81	45.2	11.7	19	5000	14	12.4	>10000	35.5
Cc1cn(C2CN(C)C2)c2c1C(=O)N(c1cc(C)c3nnn(C)c3n1)C2c1ccc(Cl)cc1 (stereo not drawn) [Example 20, 6-(4-chlorophenyl)-5-(3,7-dimethyl-3H-[1,2,3]triazolo[4,5-b]pyridin-5-yl)-3-methyl-1-(1-methylazetidin-3-yl)-5,6-dihydropyrrolo[3,4-b]pyrrol-4(1H)-one]	23	7.89	63.4	12.9	20	> 37000	16	21.25	>10000	38
CCOC(=O)n1ccc2c1C(c1ccc(Cl)cc1)N(c1cc(C)c3nnc(C)n3c1)C2=O (stereo not drawn) [Example 22, Ethyl 6-(4-chlorophenyl)-5-(3,8-dimethyl-[1,2,4]triazolo[4,3-a]pyridin-6-yl)-4-oxo-5,6-dihydropyrrolo[3,4-b]pyrrole-1(4H)-carboxylate]	38	46.8	226	60.1	26	12500	25	86.15	>10000	130
CNC(=O)n1ccc2c1C(c1ccc(Cl)cc1)N(c1cc(C)c3nnc(C)n3c1)C2=O (stereo not drawn) [Example 23, 6-(4-chlorophenyl)-5-(3,8-dimethyl-[1,2,4]triazolo[4,3-a]pyridin-6-yl)-N-methyl-4-oxo-5,6-dihydropyrrolo[3,4-b]pyrrole-1(4H)-carboxamide]	85	29	206	39.2	39	4200	52	54.7	>10000	101.7
Cc1cc(N2C(=O)c3ccn(C(=O)N(C)C)c3C2c2ccc(Cl)cc2)cn2c(C)nnc12 (stereo not drawn) [Example 24, 6-(4-chlorophenyl)-5-(3,8-dimethyl-[1,2,4]triazolo[4,3-a]pyridin-6-yl)-N,N-dimethyl-4-oxo-5,6-dihydropyrrolo[3,4-b]pyrrole-1(4H)-carboxamide]	220	92.8	527	96.4	87	13300	80	152	>10000	267.5
Cc1cc(N2C(=O)c3cc(-c4cccnc4O)[nH]c3C2c2ccc(Cl)cc2)cn2c(C)nnc12 (stereo not drawn) [Example 26, 6-(4-chlorophenyl)-5-(3,8-dimethyl-[1,2,4]triazolo[4,3-a]pyridin-6-yl)-2-(2-hydroxypyridin-3-yl)-5,6-dihydropyrrolo[3,4-b]pyrrol-4(1H)-one]	78	70	839	136	52	4000	60	118.5	>10000	340
Cc1cn(C)c2c1C(=O)N(c1cc(C)c3nnn(C)c3c1)C2c1ccc(Cl)cc1 (stereo not drawn) [Example 28, 6-(4-chlorophenyl)-5-(1,4-dimethyl-1H-benzo[d][1,2,3]triazol-6-yl)-1,3-dimethyl-5,6-dihydropyrrolo[3,4-b]pyrrol-4(1H)-one]	20	12.8	55.6	19.2	21	1900	16	26.35	>10000	38.15

The next lines start with results.

IC50 (BRD2) [nM]	GI50 (MV-4-11) [nM]	GI50 (K-562) [nM]	GI50 (THP-1) [nM]	IC50 (BRD3) [nM]	IC50 (CREBBP) [nM]	IC50 (BRD4) [nM]	SMILES	MV-4-11 TGI (MV-4-11) [nM]	K-562 TGI (K-562) [nM]	THP-1 TGI (THP-1) [nM]
71	12.7	73.6	17.6	67	13700	62	COCCn1cc(C)c2c1C(c1ccc(Cl)cc1)N(c1cc(C)c3nnc(C)n3c1)C2=O (stereo not drawn) [Example 13, 6-(4-chlorophenyl)-5-(3,8-dimethyl-[1,2,4]triazolo[4,3-a]pyridin-6-yl)-1-(2-methoxyethyl)-3-methyl-5,6-dihydropyrrolo[3,4-b]pyrrol-4(1H)-one]	24.85	>10000	38.9
< 11	11.1	230	43.3	< 11	4100	< 11	CC(=O)N1CC(n2cc(C3CC3)c3c2C(c2ccc(Cl)cc2)N(c2cc(C)c4nnc(C)n4c2)C3=O)C1 (stereo not drawn) [Example 17, 1-(1-acetylazetidin-3-yl)-6-(4-chlorophenyl)-3-cyclopropyl-5-(3,8-dimethyl-[1,2,4]triazolo[4,3-a]pyridin-6-yl)-5,6-dihydropyrrolo[3,4-b]pyrrol-4(1H)-one]	34.85	>10000	168
82	45.2	246	63.3	53	5100	47	Cc1cc(N2C(=O)c3cc[nH]c3C2c2ccc(Cl)cc2)cn2c(C)nnc12 (stereo not drawn) [Example 21, 6-(4-chlorophenyl)-5-(3,8-dimethyl-[1,2,4]triazolo[4,3-a]pyridin-6-yl)-5,6-dihydropyrrolo[3,4-b]pyrrol-4(1H)-one]	81.05	>10000	178
38	36.8	156	39.2	23	4400	17	Cc1cc(N2C(=O)c3cc(-c4cccn(C)c4=O)[nH]c3C2c2ccc(Cl)cc2)cn2c(C)nnc12 (stereo not drawn) [Example 25, 6-(4-chlorophenyl)-5-(3,8-dimethyl-[1,2,4]triazolo[4,3-a]pyridin-6-yl)-2-(1-methyl-2-oxo-1,2-dihydropyridin-3-yl)-5,6-dihydropyrrolo[3,4-b]pyrrol-4(1H)-one]	58.15	>10000	94.9
